Measured values reported in ChEMBL document CHEMBL1134194, “Anti-HIV activity of aromatic and heterocyclic thiazolyl thiourea compounds” (Bioorg Med Chem Lett, 2001).
Where a name gives a salt, the structure may show the parent alone.

What was measured:
[1] = Cytotoxic concentration was evaluated against human peripheral blood mononuclear cells (PBMC); format: functional
[2] = molecular target: Human immunodeficiency virus type 1 reverse transcriptase (Human immunodeficiency virus 1, UniProt Q72547, K103N/Y181C); assay: Inhibitory activity against non-nucleoside reverse transcriptase inhibitors (NNRTI) -resistant HIV-1 strain A17 variant with Y181C plus K103N mutations in RT (reverse transcriptase)
[3] = tested on: Human immunodeficiency virus 1; assay: Tested for the ability to inhibit the replication of HIV-1 strain HTLV IIIB in human peripheral blood mononuclear cells (PBMC); format: functional, organism-based
[4] = tested on: Human immunodeficiency virus 1; assay: Selectivity index was determined; format: functional

Row | Compound | CC50 [1] [µM] | IC50 [2] [µM] | IC50 [3] [µM] | Selectivity index [4]
1 | S=C(NCCCn1ccnc1)Nc1nccs1 | 35 | > 100 | < 0.001 | 35000
2 | Cc1ccnc2c1NC(=O)c1cccnc1N2C1CC1 [NEVIRAPINE] |  |  | 0.034 | 
3 | S=C(NCCc1cccs1)Nc1nccs1 | 71 |  | < 0.001 | 71000
4 | S=C(NCCOc1ccccc1)Nc1nccs1 | > 100 | > 100 | < 0.001 | >100000
5 | CCC(NC(=S)Nc1nccs1)c1ccccc1 (stereo unspecified) |  | 1.5 |  | 
6 | S=C(NCCN1CCCCC1)Nc1nccs1 |  |  | > 100 | 
7 | Cc1ccc(CC/N=C(\S)Nc2nccs2)cc1 | > 100 | > 100 | 0.07 | 1429
8 | S=C(NCCc1cccs1)Nc1ccc(Br)cn1 | > 100 | 3.3 |  | 
9 | S=C(NCC12CC3CC(CC(C3)C1)C2)Nc1nccs1 | 40 | 1.3 | < 0.001 | 40000
10 | CC(C)Nc1cccnc1N1CCN(C(=O)c2cc3cc(NS(C)(=O)=O)ccc3[nH]2)CC1 [DELAVIRDINE MESYLATE] |  |  | 0.009 | 
11 | S=C(NCCc1ccccn1)Nc1nccs1 | 100 |  | 1 | 100
12 | Oc1ccc(CCNC(=S)Nc2ccc(Br)cn2)cc1 | > 100 | > 100 | 0.007 | 
13 | S=C(NCCc1c[nH]c2ccccc12)Nc1nccs1 | 28 | 3.7 | < 0.001 | 28000
14 | S=C(NCCC1=CCCCC1)Nc1nccs1 |  | > 100 |  | 
15 | Oc1ccc(CC/N=C(\S)Nc2nccs2)cc1 |  |  | > 100 | 
16 | S=C(NCc1ccco1)Nc1nccs1 | > 100 | 0.6 | < 0.001 | >100000
